Literature values as cited in US9585827B2, “Kits comprising a beverage composition and information for use” (The Procter & Gamble Company, priority 2000, dated 2017).

What was measured:
[1] = Reussner et al. 1975; phosphate added to low pH powdered beverage compositions
[2] = system: dental caries; conditions: Städtler et al. 1996; toothpaste formulations of near-neutral pH

Row | Compound | protective effect against molar erosion [1] | effect against dental caries [2]
1 | O=P1([O-])OP(=O)([O-])OP(=O)([O-])OP(=O)([O-])OP(=O)([O-])OP(=O)([O-])O1.[Na+].[Na+].[Na+].[Na+].[Na+].[Na+] [sodium hexametaphosphate] | did not produce significant protective effects | 
2 | O=P1([O-])OP(=O)([O-])OP(=O)([O-])O1.[Na+].[Na+].[Na+] [trimetaphosphate] |  | may be effective against dental caries
